Measurements: US6686355B2, “Biphenyl sulfonamides useful as matrix metalloproteinase inhibitors” (Warner-Lambert Company, priority 2001, dated 2004)

Assays:
Assay type in all cases: biochemical
[1] = target: T1, MMP-2FL (full length Gelatinase A) (Homo sapiens, UniProt P08253); assay: Thiopeptolide hydrolysis assay, MMP-2FL; conditions: thiopeptolide substrate, HEPES pH 7.0, 22° C.
T1 sequence (P08253 110-660): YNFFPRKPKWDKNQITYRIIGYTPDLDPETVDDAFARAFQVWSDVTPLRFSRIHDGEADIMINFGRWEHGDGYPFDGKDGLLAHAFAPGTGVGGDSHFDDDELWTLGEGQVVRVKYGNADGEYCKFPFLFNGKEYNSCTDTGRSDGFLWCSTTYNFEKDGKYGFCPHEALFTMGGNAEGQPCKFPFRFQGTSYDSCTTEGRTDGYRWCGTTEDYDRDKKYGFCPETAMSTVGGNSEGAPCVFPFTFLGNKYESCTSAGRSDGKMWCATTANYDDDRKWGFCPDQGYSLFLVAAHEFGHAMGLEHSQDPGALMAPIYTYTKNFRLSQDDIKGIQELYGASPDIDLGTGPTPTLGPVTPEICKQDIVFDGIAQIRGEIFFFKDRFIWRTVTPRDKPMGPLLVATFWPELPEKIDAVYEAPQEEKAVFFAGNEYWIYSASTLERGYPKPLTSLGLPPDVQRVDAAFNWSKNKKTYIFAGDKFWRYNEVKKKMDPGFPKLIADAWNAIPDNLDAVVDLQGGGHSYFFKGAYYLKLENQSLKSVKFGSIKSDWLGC
Description: (§1) The assays measure the amount by which a test compound reduces the hydrolysis of a thiopeptolide substrate catalyzed by a matrix metalloproteinase enzyme. Such assays are described in detail by Ye et al., in Biochemistry, 1992;31(45):11231-11235, which is incorporated herein by reference.
(§2) Thiopeptolide substrates show virtually no decomposition or hydrolysis at or below neutral pH in the absence of a matrix metalloproteinase enzyme. A typical thiopeptolide substrate commonly utilized for assays is Ac-Pro-Leu-Gly-thioester-Leu-Leu-Gly-OEt. A 100 μL assay mixture will contain 50 mM of N-2-hydroxyethylpiperazine-N′-2-ethanesulfonic acid buffer (“HEPES”) at pH 7.0, 10 mM CaCl2, 100 μM thiopeptolide substrate, and 1 mM 5,5″-dithio-bis-(2-nitro-benzoic acid) (DTNB). The thiopeptolide substrate concentration may be varied from, for example, 10 to 800 μM to obtain Km and Kcat values. The change in absorbance at 405 nm is monitored on a Thermo Max microplate reader (Molecular Devices, Menlo Park, Calif.) at room temperature (22° C.). The calculation of the amount of hydrolysis of the thiopeptolide substrate is based on E412=13600 M^−1 cm^−1 for the DTNB-derived product 3-carboxy4-nitrothiophenoxide. Assays are carried out with and without matrix metalloproteinase inhibitor compounds, and the amount of hydrolysis is compared for a determination of inhibitory activity of the test compounds.
(§3) Several representative compounds have been evaluated for their ability to inhibit various matrix metalloproteinase enzymes. In Table I, MMP-1FL refers to full length interstitial collagenase; MMP-2FL refers to full length Gelatinase A; MMP-3CD refers to the catalytic domain of stromelysin-1; MMP-7FL refers to full length matrilysin; MMP-9FL refers to full length Gelatinase B; MMP-13CD refers to the catalytic domain of collagenase 3; and MMP-14CD refers to the catalytic domain of MMP-14. Test compounds were evaluated at various concentrations in order to determine their respective IC50 values, the micromolar concentration of compound required to cause a 50% inhibition of the catalytic activity of the respective enzyme.

[2] = target: MMP-13CD (catalytic domain of collagenase 3) (Homo sapiens, UniProt P45452); assay: Thiopeptolide hydrolysis assay, MMP-13CD; conditions: thiopeptolide substrate, HEPES pH 7.0, 22° C.
Description: as §1, §2, §3

[3] = target: MMP-14CD (catalytic domain of MMP-14) (Homo sapiens, UniProt P50281); assay: Thiopeptolide hydrolysis assay, MMP-14CD; conditions: thiopeptolide substrate, HEPES pH 7.0, 22° C.
Description: as §1, §2, §3

[4] = target: T2, MMP-7FL (full length matrilysin) (Homo sapiens, UniProt P09237); assay: Thiopeptolide hydrolysis assay, MMP-7FL; conditions: thiopeptolide substrate, HEPES pH 7.0, 22° C.
T2 sequence (P09237 95-267): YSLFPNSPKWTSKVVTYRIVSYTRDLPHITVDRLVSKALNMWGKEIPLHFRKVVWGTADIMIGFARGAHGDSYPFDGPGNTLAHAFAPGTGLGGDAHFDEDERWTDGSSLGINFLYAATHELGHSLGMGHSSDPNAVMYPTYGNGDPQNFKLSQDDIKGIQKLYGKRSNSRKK
Description: as §1, §2, §3

[5] = target: T3, MMP-12CD (Homo sapiens, UniProt P39900); assay: Thiopeptolide hydrolysis assay, MMP-12CD; conditions: thiopeptolide substrate, HEPES pH 7.0, 22° C.
T3 construct: MMP-12CD
Description: as §1, §2, §3

[6] = target: T4, MMP-1FL (full length interstitial collagenase) (Homo sapiens, UniProt P03956); assay: Thiopeptolide hydrolysis assay, MMP-1FL; conditions: thiopeptolide substrate, HEPES pH 7.0, 22° C.
T4 sequence (P03956 100-469): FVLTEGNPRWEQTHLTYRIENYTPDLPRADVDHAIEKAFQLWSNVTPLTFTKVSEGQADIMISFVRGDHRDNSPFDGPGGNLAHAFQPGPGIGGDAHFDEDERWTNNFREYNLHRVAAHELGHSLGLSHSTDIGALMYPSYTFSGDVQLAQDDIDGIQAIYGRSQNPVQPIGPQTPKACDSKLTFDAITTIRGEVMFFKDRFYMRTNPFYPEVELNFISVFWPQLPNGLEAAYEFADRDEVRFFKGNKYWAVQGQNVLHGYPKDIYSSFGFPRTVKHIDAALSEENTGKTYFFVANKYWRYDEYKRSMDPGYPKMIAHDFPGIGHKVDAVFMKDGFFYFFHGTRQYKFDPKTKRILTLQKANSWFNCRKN
Description: as §1, §2, §3

[7] = target: MMP-3CD (catalytic domain of stromelysin-1) (Homo sapiens, UniProt P08254); assay: Thiopeptolide hydrolysis assay, MMP-3CD; conditions: thiopeptolide substrate, MES pH 6.0
Description: as §1, §2, §3
It should be appreciated that the assay buffer used with MMP-3CD was 50 mM of 2-morpholinoethanesulfonic acid monohydrate (“MES”) at pH 6.0 rather than the HEPES buffer at pH 7.0 described above.

[8] = target: MMP-9FL (full length Gelatinase B) (Homo sapiens, UniProt P14780); assay: Thiopeptolide hydrolysis assay, MMP-9FL; conditions: thiopeptolide substrate, HEPES pH 7.0, 22° C.
Description: as §1, §2, §3

Sequence of MMP-9FL (full length Gelatinase B) (P14780 94-707, species assumed): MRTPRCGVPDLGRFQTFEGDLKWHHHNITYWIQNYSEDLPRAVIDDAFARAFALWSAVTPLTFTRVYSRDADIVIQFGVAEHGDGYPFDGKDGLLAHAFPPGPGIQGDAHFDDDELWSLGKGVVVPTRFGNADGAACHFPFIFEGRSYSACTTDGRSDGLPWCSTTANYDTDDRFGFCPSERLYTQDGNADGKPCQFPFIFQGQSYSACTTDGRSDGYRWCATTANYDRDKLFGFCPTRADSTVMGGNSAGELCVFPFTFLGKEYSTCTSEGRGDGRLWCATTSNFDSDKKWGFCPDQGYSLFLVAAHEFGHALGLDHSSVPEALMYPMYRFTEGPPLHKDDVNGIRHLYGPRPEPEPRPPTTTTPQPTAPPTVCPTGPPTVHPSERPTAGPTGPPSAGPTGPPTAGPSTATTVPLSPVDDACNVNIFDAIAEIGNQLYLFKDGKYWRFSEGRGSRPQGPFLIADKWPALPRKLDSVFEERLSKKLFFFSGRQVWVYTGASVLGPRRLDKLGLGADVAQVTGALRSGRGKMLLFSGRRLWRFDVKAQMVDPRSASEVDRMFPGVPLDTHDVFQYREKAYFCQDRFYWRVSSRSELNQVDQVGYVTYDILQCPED
T3 sequence (P39900 106-263 limits assumed): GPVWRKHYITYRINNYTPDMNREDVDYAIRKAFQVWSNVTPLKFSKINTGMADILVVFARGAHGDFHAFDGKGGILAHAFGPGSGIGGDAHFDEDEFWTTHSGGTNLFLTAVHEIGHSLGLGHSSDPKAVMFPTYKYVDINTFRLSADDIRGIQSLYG
Sequence of MMP-3CD (catalytic domain of stromelysin-1) (P08254 100-272 limits assumed): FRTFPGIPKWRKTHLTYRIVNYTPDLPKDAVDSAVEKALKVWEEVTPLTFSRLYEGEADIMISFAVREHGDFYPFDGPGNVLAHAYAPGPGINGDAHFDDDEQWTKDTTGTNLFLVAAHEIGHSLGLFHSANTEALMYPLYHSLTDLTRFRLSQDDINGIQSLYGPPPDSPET

IC50 [1] | IC50 [2] | IC50 [3] | IC50 [4] | IC50 [5] | IC50 [6] | IC50 [7] | IC50 [8] | Molecule
0.0043 µM | 0.0086 µM | 0.145 µM | 1.85 µM | 0.001 µM | 3.15 µM | 0.0072 µM | 0.017 µM | CC1(C)SCCN(S(=O)(=O)c2ccc(-c3ccc(-c4ccccc4)c(F)c3)cc2)[C@H]1C(=O)O [Example 53, (S)-4-(2′-Fluoro-[1,1′;4′,1″]terphenyl-4″-sulfonyl)-2,2-dimethyl-thiomorpholine-3-carboxylic acid]
0.115 µM | 0.16 µM | 0.67 µM | 25 µM | 0.013 µM | 3.25 µM | 0.0285 µM | 2.78 µM | CC1(C)SCCN(S(=O)(=O)c2ccc(-c3ccc(F)cc3F)cc2)[C@H]1C(=O)O [Example 39, (S)-4-(2′,4′-Difluoro-biphenyl-4-sulfonyl)-2,2-dimethyl-thiomorpholine-3-carboxylic acid]
0.00135 µM | 0.00145 µM | 0.0343 µM | 2.67 µM | 0.001 µM | 1.17 µM | 0.00295 µM | 0.0032 µM | CC1(C)SCCN(S(=O)(=O)c2ccc(-c3ccc(-c4ccccc4)cc3)cc2)[C@H]1C(=O)O [Example 38, (S)-2,2-Dimethyl-4-([1,1′;4′,1″]terphenyl-4-sulfonyl)-thiomorpholine-3-carboxylic acid]

Molecule | IC50 [1] | IC50 [2] | IC50 [3] | IC50 [4] | IC50 [5] | IC50 [6] | IC50 [7] | IC50 [8]
(S)-2,2-Dimethyl-4-(4-methylsulfanyl-biphenyl-4-sulfonyl)-thiomorpholine-3-carboxylic acid [Example 37] | 0.0025 µM | 0.00305 µM | 0.036 µM | 6.87 µM | 0.001 µM | 2.03 µM | 0.00475 µM | 0.069 µM
